Where a name gives a salt, the structure may show the parent alone.
biological target: Sphingosine 1-phosphate receptor 1 (Homo sapiens, UniProt P21453); test: potentiators of S1P1 agonist response, dose response, cell-based, potentiator mode, 60K MLSMR set (AID 466); conditions: not given
Sequence (P21453 whole entry): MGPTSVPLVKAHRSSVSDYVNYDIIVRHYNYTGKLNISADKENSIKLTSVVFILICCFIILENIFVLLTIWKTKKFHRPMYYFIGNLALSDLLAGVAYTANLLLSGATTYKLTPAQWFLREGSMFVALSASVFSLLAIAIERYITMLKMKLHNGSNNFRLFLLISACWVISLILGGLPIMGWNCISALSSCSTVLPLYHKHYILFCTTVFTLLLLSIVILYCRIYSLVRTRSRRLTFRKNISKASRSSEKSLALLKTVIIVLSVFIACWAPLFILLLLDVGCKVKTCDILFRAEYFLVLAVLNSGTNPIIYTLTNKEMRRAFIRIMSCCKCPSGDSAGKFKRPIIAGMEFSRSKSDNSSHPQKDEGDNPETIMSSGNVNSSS

Compound | EC50 [µM]
O=C(c1ccc(Cl)s1)N1CCN(c2nc3ccccc3s2)CC1 [MLS000100900] | > 30
Cc1ccc2[nH]c3c(N4CCN(Cc5ccc6c(c5)OCO6)CC4)ncnc3c2c1 | > 30
CCOc1cc(C2NCc3ccccc3-n3cccc32)ccc1O (centres undefined) [4-(5,6-dihydro-4H-pyrrolo[1,2-a][1,4]benzodiazepin-4-yl)-2-ethoxy-phenol;hydrochloride] | 15
CC(C)Cc1cc(C(=O)Nc2sc3c(c2C#N)CCCC3)no1 [MLS000116410] | 9.59
COCCn1c(C)cc(C(=O)CSc2nc3ccccc3o2)c1C [2-(1,3-benzoxazol-2-ylsulfanyl)-1-[1-(2-methoxyethyl)-2,5-dimethyl-pyrrol-3-yl]ethanone] | > 95
CCOc1ccc(S(=O)(=O)n2cnc3cc(C)c(C)cc32)cc1 [1-(4-Ethoxy-benzenesulfonyl)-5,6-dimethyl-1H-benzoimidazole] | 8.29
COc1ccc2c(c1)CCc1c(C(=O)Nc3ccc(OC)c(OC)c3)noc1-2 [MLS000087452] | 2.83
CCOC(=O)c1cccc2c1-c1ccccc1C2N=O (centres undefined) [9-hydroximinofluorene-4-carboxylic acid ethyl ester] | 10.2
O=C(Nc1ccc(-c2noc(CCc3ccccc3)n2)cc1)c1cccnc1 [MLS000047253] | 3.4
Cc1nc2sccn2c1-c1csc(NCc2ccccc2)n1 [4-(6-methyl-5-imidazo[2,1-b]thiazolyl)-N-(phenylmethyl)-2-thiazolamine] | 3.6
CCn1c(NC(=O)c2cccc(Cn3cc(Cl)cn3)c2)nc2ccccc21 [3-[(4-chloranylpyrazol-1-yl)methyl]-N-(1-ethylbenzimidazol-2-yl)benzamide] | > 10
c1csc(CCNc2ncnc3sc4c(c23)CCC4)c1 [7,8-dihydro-6H-cyclopenta[4,5]thieno[1,2-c]pyrimidin-1-yl-[2-(2-thienyl)ethyl]amine] | 1.44
COc1cc(C(=O)N2CCN(S(=O)(=O)c3ccc(C)cc3)CC2)ccc1OCc1c(C)noc1C [MLS000056221] | > 95
CCOc1ccc(C(C)=O)cc1-n1c(O)c2c(c1O)C1C=CC2O1 [MLS000087730] | 10.8
COc1ccc(-c2cn3c(C)c(C(=O)Nc4ccncc4)sc3n2)cc1 [6-(4-methoxyphenyl)-3-methyl-N-(4-pyridyl)imidazo[2,1-b]thiazole-2-carboxamide] | > 10
CC1Cc2ccccc2N1c1ncnc2nc[nH]c12 (centres undefined) [SMR000017649] | 7.03
Cc1cccc(-c2nc(CSCC(=O)N3CCN(Cc4ccc5c(c4)OCO5)CC3)c(C)o2)c1 [1-(1,3-benzodioxol-5-ylmethyl)-4-[({[5-methyl-2-(3-methylphenyl)-1,3-oxazol-4-yl]methyl}thio)acetyl]piperazine] | 5.42
CCOC(=O)c1sc2nc(NC(=O)C3CCCCC3)sc2c1C [2-(cyclohexanecarbonylamino)-6-methyl-thieno[2,3-d]thiazole-5-carboxylic acid ethyl ester] | > 30
COc1ccc(-n2c(O)cc(Sc3nnc[nH]3)c2O)c(OC)c1 [1-(2,4-dimethoxyphenyl)-3-(1H-1,2,4-triazol-5-ylthio)pyrrolidine-2,5-dione] | 16.4

Compound | EC50 [µM]
O=C(CSc1nnc(Cn2nnc3ccccc32)o1)N(Cc1ccc(F)cc1)c1ccccc1 [2-(5-Benzotriazol-1-ylmethyl-[1,3,4]oxadiazol-2-ylsulfanyl)-N-(4-fluoro-benzyl)-N-phenyl-acetamide] | 4.86
Cc1cc(C(=O)N2CCN(C(c3ccccc3)c3ccccc3)CC2)on1 [(4-benzhydrylpiperazin-1-yl)-(3-methyl-1,2-oxazol-5-yl)methanone] | 5.65
CC(=N)C(C#N)C(=O)CSc1nc2cc(Cl)ccc2s1 (centres undefined) [(E)-3-amino-2-[2-[(5-chloro-1,3-benzothiazol-2-yl)sulfanyl]acetyl]but-2-enenitrile] | 11.1
CCC(NCCOc1ccc(Cl)cc1)=C1C(=O)N(C)C(=O)N(C)C1=O [5-[1-[2-(4-chlorophenoxy)ethylamino]propylidene]-1,3-dimethyl-1,3-diazinane-2,4,6-trione] | 5.34
COc1ccccc1-c1nc(-c2cccc(C)c2)no1 [5-(2-methoxyphenyl)-3-(3-methylphenyl)-1,2,4-oxadiazole] | 0.999
O=C(CCC(=O)N(Cc1ccco1)C(C(=O)NC1CCCC1)c1ccncc1)Nc1cccnc1 (centres undefined) [MLS000033292] | > 95
CCCc1cc(C(=O)Nc2sc3c(c2C#N)CCC3)no1 [MLS000116386] | > 95
Cc1cc(C(=O)Nc2sc(C)c(-c3ccc(F)cc3)c2C(N)=O)no1 [MLS000043467] | 5.47
COc1ccccc1Oc1ccc2c(c1)C(=O)N(c1ccc(O)cc1)C2=O [2-(4-hydroxyphenyl)-5-(2-methoxyphenoxy)isoindole-1,3-dione] | 0.151
O=C(C1CCC1)N1CCc2cc(S(=O)(=O)Nc3ccc4c(c3)OCCO4)ccc21 [1-(cyclobutanecarbonyl)-N-(2,3-dihydro-1,4-benzodioxin-6-yl)-2,3-dihydroindole-5-sulfonamide] | > 30
COc1cc(C#CC#CCN2CCCCC2)ccc1O [2-methoxy-4-(5-piperidin-1-ylpenta-1,3-diynyl)phenol;hydrochloride] | 7.1
CC(C)Oc1cc(O)c2c(=O)c(-c3ccc(O)cc3)coc2c1 [3-(4-hydroxyphenyl)-5-oxidanyl-7-propan-2-yloxy-chromen-4-one] | 2.78
O=C(CSc1nnc(-c2c[nH]c3ccccc23)o1)N1c2ccccc2CCc2ccccc21 | 7.48
Cc1nc2ccc3nc(NC(=O)C4COc5ccccc5O4)sc3c2s1 (centres undefined) [MLS000100909] | 4.01
Cc1cc(-c2nnc(-c3ccccc3)c(-c3ccccc3)n2)c(C)o1 [3-(2,5-dimethyl-3-furanyl)-5,6-diphenyl-1,2,4-triazine] | 6.75
Cc1ccc2c(c1)[nH]c1c(N3CCN(Cc4ccccc4)CC3)ncnc12 [SMR000044826] | 3.65
COc1ccccc1OCCCCCc1c(C)n[nH]c1C [SMR000103101] | 8.22
CCOC(=O)CN1C(=O)C(C)(C)Oc2ccc(C(=O)Nc3ccccc3OC)cc21 [2-[3-keto-6-[(2-methoxyphenyl)carbamoyl]-2,2-dimethyl-1,4-benzoxazin-4-yl]acetic acid ethyl ester] | 3.12
COc1ccc(-n2c(C)cc(C(=O)CSc3nnc(-c4cccs4)o3)c2C)cc1 [1-[1-(4-methoxyphenyl)-2,5-dimethyl-3-pyrrolyl]-2-[(5-thiophen-2-yl-1,3,4-oxadiazol-2-yl)thio]ethanone] | 1.96

same assay, conditions: inactive by the depositor's call

Compound | EC50 [µM]
CC(C)Cc1cc(C(=O)Nc2cc(Br)ccc2O)no1 [MLS000116399] | 16.5
Cc1onc(-c2ccccc2Cl)c1C(=O)Oc1cc(N)n(S(=O)(=O)c2ccc(F)cc2)n1 [3-(2-chlorophenyl)-5-methyl-4-isoxazolecarboxylic acid [5-amino-1-(4-fluorophenyl)sulfonyl-3-pyrazolyl] ester] | 20
CCC(C)OC(=O)c1[nH]c2c(c1C)C(=O)CC(c1ccc(N(C)C)cc1)C2 (centres undefined) [MLS000116530] | 18
CCOc1ccc(Cc2nc(-c3nonc3N)no2)cc1OCC [4-[5-(3,4-diethoxybenzyl)-1,2,4-oxadiazol-3-yl]-1,2,5-oxadiazol-3-amine] | 12.6
CC1CCN(S(=O)(=O)c2ccc3c(c2)oc(=O)n3CC(=O)NCc2ccc3c(c2)OCO3)CC1 [2-[2-keto-6-(4-methylpiperidino)sulfonyl-1,3-benzoxazol-3-yl]-N-piperonyl-acetamide] | 14.6
Cc1cccc(-c2nc(C#N)c(NC3CCCCC3)o2)c1 [5-(cyclohexylamino)-2-(3-methylphenyl)-1,3-oxazole-4-carbonitrile] | 11.8
CCOC(=O)c1ccc2nc(NC(=O)c3ccco3)sc2c1 [2-(2-furoylamino)-1,3-benzothiazole-6-carboxylic acid ethyl ester] | 18.7
COc1cccc(NC(=O)Nc2nnc(N3CCCCC3C)s2)c1 (centres undefined) [1-(3-methoxyphenyl)-3-[5-(2-methyl-1-piperidinyl)-1,3,4-thiadiazol-2-yl]urea] | 11.5
CCOC(=O)N1CCC(NC(=O)C2CCCN(Cc3nc(-c4cccc(Cl)c4)oc3C)C2)CC1 (centres undefined) [4-[[1-[[2-(3-chlorophenyl)-5-methyl-oxazol-4-yl]methyl]nipecotoyl]amino]piperidine-1-carboxylic acid ethyl ester] | 20.1
Cc1nc(C)c(C(=O)Nc2ccc(Oc3ccccc3)cc2)o1 [2,4-dimethyl-N-(4-phenoxyphenyl)-1,3-oxazole-5-carboxamide] | 10.5
CN(Cc1cccs1)c1ncnc2sccc12 [MLS000056228] | 14.2
CCC(=O)Nc1ccc2c(c1)C(=O)N(C1CCCCC1)C2=O [MLS000099936] | 58
CCSc1nc(N2CCOCC2)c2c(c1C#N)CCCC2 [3-(ethylthio)-1-(4-morpholinyl)-5,6,7,8-tetrahydroisoquinoline-4-carbonitrile] | 30.9
C=CCn1c(SCC(=O)c2cccs2)nc2sc(CC)cc2c1=O [3-allyl-6-ethyl-2-[[2-keto-2-(2-thienyl)ethyl]thio]thieno[2,3-d]pyrimidin-4-one] | 38.8
Cc1cc(N2CCN(C(c3ccccc3)c3ccccc3)CC2)n2ncnc2n1 [7-(4-benzhydrylpiperazin-1-yl)-5-methyl-[1,2,4]triazolo[1,5-a]pyrimidine] | 13.6
CS(=O)(=O)n1nc(OC(=O)c2cccc3ccccc23)cc1N [(5-amino-1-methylsulfonylpyrazol-3-yl) naphthalene-1-carboxylate] | 11.9
Cc1cccc(OCCCCc2c(C)n[nH]c2C)c1 [SMR000103102] | 10.6
CCc1ccc(N(CC)c2ncnc3nc[nH]c23)cc1 | 14.7
Cc1nn(Cc2ccccc2)c(C)c1C(=O)OCC(=O)c1cc(C)n(C2CC2)c1C [1-benzyl-3,5-dimethyl-pyrazole-4-carboxylic acid [2-(1-cyclopropyl-2,5-dimethyl-pyrrol-3-yl)-2-keto-ethyl] ester] | 15.6
COc1ccc2ncn(-c3ccccc3)c2c1 [6-methoxy-1-phenyl-1H-1,3-benzodiazole] | 23.6
Brc1ccc2ncnc(Nc3ccc(N4CCOCC4)cc3)c2c1 [(6-bromoquinazolin-4-yl)-(4-morpholinophenyl)amine] | 15.1

Reference: BindingDB's records for doi:10.7270/Q2ZC817P (The Scripps Research Institute Molecular Screening Center, 2007)
